Assay results reported in patent US7223754B2, “Thiazolidinone, oxazolidinone, and imidazolone derivatives for treating lower urinary tract and related disorders” (Dynogen Pharmaceuticals, Inc., priority 2003, dated 2007).

Tests used:
[1] = tested on: Female Sprague-Dawley rats; conditions: rat, in vivo
[2] = tested on: HVA calcium channels; format: cell-based, rat; conditions: n=4; 1 µM

Row | Substance | bladder capacity versus irritation control, Dunn's MCT [1] | directly measured bladder capacity, % of control values [1] [%] | effects on other micturition parameters, such as voiding efficiency [1] | intermicturition interval versus irritation control (AA/Veh 3), Dunn's multiple comparison test [1] | intermicturition interval, % of pre-irritation control values [1] [%] | calcium current amplitudes, % of control amplitudes [2] [%]
1 | ω-Conotoxin MVIIA | significantly different than irritation control | 69 | no untoward effects on other micturition parameters | significantly different than irritation control | 81 | –
2 | Omega-conotoxin GVIA | – | – | – | – | – | 72.8±1.6
